22 molecules from patent US12157730B2, “Heteroaryl derivative, method for producing same, and pharmaceutical composition comprising same as effective component” (VORONOI INC., priority 2019, dated 2024) can be followed below.

In this test the target is T1, Ba/F3 cell EGFR Exon20 ins NPH (Homo sapiens, UniProt P00533, INS773NPH).
T1 construct: expressed in transfected cells; host or cells: Ba/F3
Put plainly: Ba/F3 cell proliferation suppression, EGFR Exon20 ins NPH. It is filed as cell-based. Conditions: GI50 class; Ba/F3 cell line with NPH inserted at Exon20 of EGFR; 72 hours. The essentials:
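Cells (3000–5000/well) plated 24 h before compound, 12-point 3-fold dilutions at 0.3 nM to 50 um final; Ba/F3 lines grown with 5 ng/ml IL-3. Viability by CellTiter-Glo luminescence after 72 h, growth ratio vs control, GI50 from curves; triplicate.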

For `C=CC(=O)Nc1cc(Nc2cc(N3OCC[C@@H]3c3ccc(F)c(Cl)c3)ncn2)c(OC)cc1N1CCC(N2CCN(C3CC3)C(C)(C)C2)CC1` [Example 181, N-(5-((6-((R)-3-(3-chloro-4-fluorophenyl)isoxazolidine-2-yl)pyrimidine-4-yl)amino)-2-(4-(4-cyclopropyl-3,3-dimethylpiperazine-1-yl)piperidine-1-yl)-4-methoxyphenyl) acrylamide], the “Ba/F3 (NPH) Activity” value is “A (GI50 < 50 nM)”.
For `C=CC(=O)Nc1cc(Nc2cc(N3OCC[C@@H]3c3ccc(C)nc3)ncn2)c(OC)cc1N1CCC(N2CCN(C)CC2)CC1` [Example 47, N-(4-methoxy-2-(4-(4-methylpiperazine-1-yl)piperidine-1-yl)-5-((6((R)-3-(6-methylpyridine-3-yl)isoxazolidine-2-yl)pyrimidine-4-yl)amino)phenyl) acrylamide], the “Ba/F3 (NPH) Activity” value is “B (50 nM ≤ GI50 < 500 nM)”.
`C=CC(=O)Nc1cc(Nc2cc(N3OCC[C@@H]3c3ccc(F)c(Cl)c3F)ncn2)c(OC)cc1N1CCO[C@H](C)C1` [compound 666, N-(5-((6-((R)-3-(3-chloro-2,4-difluorophenyl)isoxazolidine-2-yl)pyrimidine-4-yl)amino)-4-methoxy-2-((R)-2-methylmorpholino)phenyl)acrylamide]: the “Ba/F3 (NPH) Activity” value was “B (50 nM ≤ GI50 < 500 nM)”.
As for `C=CC(=O)Nc1cc(Nc2cc(N3OCC[C@@H]3c3cccc(C(F)(F)F)c3)ncn2)c(OC)cc1N1CCC(N2C[C@@H]3C[C@H]2CO3)CC1` [compound 944, N-(2-(4-((1S,4S)-2-oxa-5-azabicyclo [2.2.1]heptane-5-yl)piperidine-1-yl)-4-methoxy-5-((6-((R)-3-(3-(trifluoromethyl)phenyl)isoxazolidine-2-yl)pyrimidine-4-yl)amino)phenyl) acrylamide], the “Ba/F3 (NPH) Activity” value is reported as “A (GI50 < 50 nM)”.
In the case of `C=CC(=O)Nc1cc(Nc2cc(N3OCC[C@@H]3c3c(F)cccc3F)ncn2)c(OC)cc1N1CCC(N2CCN(C3CC3)[C@H](C)C2)CC1` [Example 137, N-(2-(4-((R)-4-cyclopropyl-3-methylpiperazine-1-yl)piperidine-1-yl)-5-((6-((R)-3-(2,6-difluorophenyl)isoxazolidine-2-yl)pyrimidine-4-yl)amino)-4-methoxyphenyl) acrylamide], the “Ba/F3 (NPH) Activity” value was “B (50 nM ≤ GI50 < 500 nM)”.
Consider `C=CCN1CCN(C2CCN(c3cc(OC)c(Nc4cc(N5OCC[C@@H]5c5ccc(Cl)cc5F)ncn4)cc3NC(=O)C=C)CC2)CC1` [Example 211, N-(2-(4-(4-allylpiperazine-1-yl)piperidine-1-yl)-5-((6-((R)-3-(4-chloro-2-fluorophenyl)isoxazolidine-2-yl)pyrimidine-4-yl)amino)-4-methoxyphenyl) acrylamide], for which the “Ba/F3 (NPH) Activity” value was “A (GI50 < 50 nM)”.
For `C=CC(=O)Nc1cc(Nc2cc(N3OCC[C@@H]3c3ccc(F)cc3F)ncn2)c(OC)cc1N(C)CCOC` [compound 347, N-(5-((6-((R)-3-(2,4-difluorophenyl)isoxazolidine-2-yl)pyrimidine-4-yl)amino)-4-methoxy-2-((2-methoxyethyl)(methyl)amino)phenyl) acrylamide], the “Ba/F3 (NPH) Activity” value is recorded as “A (GI50 < 50 nM)”.
Under `C=CC(=O)Nc1cc(Nc2cc(N3OCC[C@@H]3c3cccc(C#N)c3)ncn2)c(OC)cc1N1CCC(N2C[C@@H]3C[C@H]2CO3)CC1` [compound 493, N-(2-(4-((1S,4S)-2-oxa-5-azabicyclo[2.2.1]heptane-5-yl)piperidine-1-yl)-5-((6-((R)-3-(3-cyanophenyl)isoxazolidine-2-yl)pyrimidine-4-yl)amino)-4-methoxyphenyl) acrylamide] stands “B (50 nM ≤ GI50 < 500 nM)”; under `C=CC(=O)Nc1cc(Nc2cc(N3OCC[C@@H]3c3cccc4ccccc34)ncn2)c(OC)cc1N1CCC(N2CCN(CC)CC2)CC1` [compound 484, N-(2-(4-(4-ethylpiperazine-1-yl)piperidine-1-yl)-4-methoxy-5-((6-((R)-3-(naphthalene-1-yl)isoxazolidine-2-yl)pyrimidine-4-yl)amino)phenyl)acrylamide], “B (50 nM ≤ GI50 < 500 nM)”.
For the molecule `C=CC(=O)Nc1cc(Nc2cc(N3OCC[C@@H]3c3ccc(Cl)cc3F)ncn2)c(OC)cc1N1CCN(C)CC1` [compound 372, N-(5-((6-((R)-3-(4-chloro-2-fluorophenyl)isoxazolidine-2-yl)pyrimidine-4-yl)amino)-4-methoxy-2-(4-methylpiperazine-1-yl)phenyl)acrylamide], the “Ba/F3 (NPH) Activity” value is listed as “A (GI50 < 50 nM)”.
Under `C=CC(=O)Nc1cc(Nc2cc(N3OCC[C@@H]3Cc3ccccc3)ncn2)c(OC)cc1N1CCN(CC2CC2)CC1` [compound 959, N-(5-((6-((S)-3-benzylisoxazolidine-2-yl)pyrimidine-4-yl)amino)-2-(4-(cyclopropylmethyl)piperazine-1-yl)-4-methoxyphenyl) acrylamide] stands “A (GI50 < 50 nM)”; under `C=CC(=O)Nc1cc(Nc2cc(N3OCC[C@@H]3c3ccc(F)cc3F)ncn2)c(OC)cc1N1CCC(N2CCN(C)CC2)CC1` [compound 352, N-(5-((6-((R)-3-(2,4-difluorophenyl)isoxazolidine-2-yl)pyrimidine-4-yl)amino)-4-methoxy-2-(4-(4-methylpiperazine-1-yl)piperidine-1-yl)phenyl) acrylamide], “A (GI50 < 50 nM)”.
As to `C=CC(=O)Nc1cc(Nc2cc(N3OCC[C@@H]3Cc3cccc(F)c3)ncn2)c(OC)cc1N1CCC(N2CCN(C3CC3)CC2)CC1` [compound 997, N-(2-(4-(4-cyclopropylpiperazine-1-yl)piperidine-1-yl)-5-((6-((S)-3-(3-fluorobenzyl)isoxazolidine-2-yl)pyrimidine-4-yl)amino)-4-methoxyphenyl) acrylamide], the “Ba/F3 (NPH) Activity” value was “A (GI50 < 50 nM)”.
With `C=CC(=O)Nc1cc(Nc2cc(N3OCC[C@@H]3c3c(F)ccc(F)c3F)ncn2)c(OC)cc1N1CCC(N2CCOCC2)CC1` [compound 632, N-(4-methoxy-2-(4-morpholinopiperidine-1-yl)-5-((6-((R)-3-(2,3,6-trifluorophenyl)isoxazolidine-2-yl)pyrimidine-4-yl)amino)phenyl)acrylamide], the “Ba/F3 (NPH) Activity” value is reported as “A (GI50 < 50 nM)”.
`C=CC(=O)Nc1cc(Nc2cc(N3OCC[C@@H]3c3cccc(Cl)c3F)ncn2)c(OC)cc1N1CCC(N2CC[C@@H](N(C)C)C2)CC1` [compound 914, N-(5-((6-((R)-3-(3-chloro-2-fluorophenyl)isoxazolidine-2-yl)pyrimidine-4-yl)amino)-2-(4-((R)-3-(dimethylamino)pyrolidine-1-yl)piperidine-1-yl)-4-methoxyphenyl) acrylamide]: the “Ba/F3 (NPH) Activity” value is given as “A (GI50 < 50 nM)”.
`C=CC(=O)Nc1cc(Nc2cc(N3OCC[C@@H]3c3cc(F)ccc3F)ncn2)c(OC)cc1N1C[C@@H]2C[C@H]1CO2` [compound 329, N-(2-((1S,4S)-2-oxa-5-azabicyclo[2.2.1]heptane-5-yl)-5-((6-((R)-3-(2,5-difluorophenyl)isoxazolidine-2-yl)pyrimidine-4-yl)amino)-4-methoxyphenyl) acrylamide]: the “Ba/F3 (NPH) Activity” value is on record as “A (GI50 < 50 nM)”.
Turning to `C=CC(=O)Nc1cc(Nc2cc(N3OCC[C@@H]3c3ccc(F)c(Cl)c3)ncn2)c(OC)cc1N1C[C@H]2CCN(C)[C@H]2C1` [compound 317, N-(5-((6-((R)-3-(3-chloro-4-fluorophenyl)isoxazolidine-2-yl)pyrimidine-4-yl)amino)-4-methoxy-2-((3aR, 6aR)-1-methylhexahydropyrrolo [3,4-b]pyrrole-5(1H)-yl)phenyl)acrylamide], the “Ba/F3 (NPH) Activity” value was “A (GI50 < 50 nM)”.
Under `C=CC(=O)Nc1cc(Nc2cc(N3OCC[C@@H]3c3cccc(C(F)(F)F)c3)ncn2)c(OC)cc1N1CC[C@@H](N(C)C)C1` [compound 505, N-(2-((R)-3-(dimethylamino)pyrolidine-1-yl)-4-methoxy-5-((6-((R)-3-(3-(trifluoromethyl)phenyl)isoxazolidine-2-yl)pyrimidine-4-yl)amino)phenyl)acrylamide] stands “A (GI50 < 50 nM)”.
For the molecule `C=CC(=O)Nc1cc(Nc2cc(N3OCC[C@@H]3c3cccc(F)c3)ncn2)c(OC)cc1N1CCC(N2C[C@H]3C[C@@H]2CO3)CC1` [Example 243, N-(2-(4-((1R,4R)-2-oxa-5-azabicyclo[2.2.1]heptane-5-yl)piperidine-1-yl)-5-((6-((R)-3-(3-fluorophenyl)isoxazolidine-2-yl)pyrimidine-4-yl)amino)-4-methoxyphenyl) acrylamide], the “Ba/F3 (NPH) Activity” value is reported as “A (GI50 < 50 nM)”.
On to `C=CC(=O)Nc1cc(Nc2cc(N3OCC[C@@H]3c3ccc4ccccc4c3)ncn2)c(OC)cc1N1CCC(N2CCN(C)CC2)CC1` [compound 554, N-(4-methoxy-2-(4-(4-methylpiperazine-1-yl)piperidine-1-yl)-5-((6-((R)-3-(naphthalene-2-yl)isoxazolidine-2-yl)pyrimidine-4-yl)amino)phenyl)acrylamide], for which the “Ba/F3 (NPH) Activity” value is given as “B (50 nM ≤ GI50 < 500 nM)”.
Regarding `C=CC(=O)Nc1cc(Nc2cc(N3OCC[C@@H]3c3cc(F)ccc3F)ncn2)c(OC)cc1-n1ccnc1C` [compound 330, N-(5-((6-((R)-3-(2,5-difluorophenyl)isoxazolidine-2-yl)pyrimidine-4-yl)amino)-4-methoxy-2-(2-methyl-1H-imidazole-1-yl)phenyl)acrylamide], the “Ba/F3 (NPH) Activity” value is recorded as “A (GI50 < 50 nM)”.
`C=CC(=O)Nc1cc(Nc2cc(N3OCC[C@@H]3c3cc(F)ccc3F)ncn2)c(OC)cc1N1C[C@H]2C[C@@H]1CO2` [compound 328, N-(2-((1R,4R)-2-oxa-5-azabicyclo[2.2.1]heptane-5-yl)-5-((6-((R)-3-(2,5-difluorophenyl)isoxazolidine-2-yl)pyrimidine-4-yl)amino)-4-methoxyphenyl) acrylamide]: the “Ba/F3 (NPH) Activity” value is “A (GI50 < 50 nM)”.
